According to US20260306641A1, “HELICASE DEGRADERS” (priority 2023, published 2026):

Tests used:
DNA Polymerase-theta = conditions: higher doses; cited from earlier work
143B cells = assay: CellTiter-Glo viability, 143B; type: cell-based, human; conditions: 72 hr
Description: (§1) FIGS. 7A-7C depict that CMGi induce DNA damage and selectively reduce tumor cell viability. (FIG. 7A) Cell Titer Glo viability assays for CA1/CMGi sensitivity were performed on 143B (OS), Psn1 (PDAC), and H460 (NSCLC) tumor lines. Novobiocin was tested against 143B cells as a comparison. (FIG. 7B) Immunoblot of chromatin-bound proteins (as indicated) from asynchronous 143B OS cells treated with 10 μM novobiocin or increasing concentrations of CA1 for 24 hrs. (FIG. 7C) Immunoblot of total proteins from Psn1, H460, 143B, and HaCaT cells treated with 5 μM CA1/CMGi or DMSO/novobiocin controls, or HaCaT treated with 15 μM CA1/CMGi (right side). The Psn1 and H460 cells were treated for 24 hrs, and 143B and HaCaT cells were treated for 48 hrs. Probing of blots was done with anti-gamma-H2AX (DNA damage signal) or anti-cleaved-Parp (apoptotic indicator). Anti-GAPDH is a loading control.
Cell viability determinations were performed using CellTiter-Glo Assays (Promega; cat #G7572). Cells were seeded in 96-well plates at a density of ~3×10^3 cells/well and treated with drugs for 72 hr, after which the cells were processed for viability using CellTiter-Glo reagent according to the instructions of the manufacturer. Each drug concentration test was performed using four replicates, and results averaged and plotted on graphs, +/−1 s.d.

HaCaT cells = assay: DNA damage (gamma-H2AX) and apoptosis (cleaved Parp) immunoblot, HaCaT; type: cell-based, human; conditions: 15 μM, 48 hrs
Description: as §1

HPV18-E1 helicase = HPV18-E1 helicase (human papillomavirus 18, UniProt P06789); assay: HPV18-E1 helicase assay; type: biochemical, human papilloma virus 18; conditions: requires higher CA1 concentrations than CMG
Description: The HPV16 or HPV18 E1 helicase domain (16E1HD or 18E1HD) was expressed and purified from Sf9 cells by infecting the cells with 2Flag-GST-E1 baculovirus. The cleared cell lysates were prepared as for large T antigen and incubated with Glutathione beads at 4° C. overnight. The bound E1 proteins were eluted from beads with 20 mM reduced glutathione in Q buffer, applied to a Q Sepharose Fast Flow column, and eluted with 0.75 M potassium acetate in Q buffer. Purified E1 proteins were obtained by further incubation with Flag-M2 beads and elution with Flag peptides.
Helicase fork-unwinding assays were performed at 37° C. for 1 hr in 20 μL reaction volumes using 2-4 μl of hCMG (~15-30 fmol), in a buffer consisting of 25 mM Hepes-NaOH (pH 7.5), 5 mM NaCl, 0.5 mM ATP, 10 mM magnesium acetate, 1 mM DTT, 0.1 mg/ml bovine serum albumin (BSA), and ~10 fmol of radiolabeled DNA forks (20). Reactions were terminated with 4 μl of 6× stop solution [50 mM EDTA (pH 8.0), 40% (vol/vol) glycerol, 2% (wt/vol) SDS, and 0.3% bromophenol blue], loaded onto 10% (wt/vol) polyacrylamide gels, resolved at 150 volts in 1×-TBE buffer (89 mM Tris base, 89 mM boric acid, and 2 mM EDTA), dried on filter paper, and analyzed by autoradiography and quantified by PhosphorImager assessment. […]

[1] = test system: bacterial type-2 topoisomerase, gyrase; conditions: cited from earlier work
[2] = test system: Dbf4-Cdc7 (DDK); Mcm2 S53 and S139; assay: Immunoblot of DDK-dependent Mcm2 phosphorylation, HaCaT cells; type: cell-based, human; conditions: extended exposure (18 hrs)
Description: Immunoblots of total proteins from synchronized HaCaT cells treated with compounds at time of release (0 hr; beginning of G1 phase) and collected after 18 hrs of exposure. (FIG. 5A) DDK-dependent phosphorylation sites on Mcm2 were analyzed with phospho-specific antibodies. (FIG. 5B) Cdk1- and Cdk2-dependent targets (Rb, Cdc6, and PP1α) were analyzed with phospho-specific antibodies.

[3] = test system: Psn1, H460 and 143B tumor lines; assay: DNA damage (gamma-H2AX) and apoptosis (cleaved Parp) immunoblot, tumor lines; type: cell-based, human; conditions: 5 μM
Description: as §1

[4] = test system: hCMG complexes immunoprecipitated from HaCaT cells; assay: Co-immunoprecipitation, HaCaT nuclear extract; type: biochemical, human; conditions: 15 μM, 30 min
Description: Nuclear extracts were prepared from synchronized HaCaT cells after releasing into S-phase (at 20 hrs post release) or HEK-293T cells expressing stable Flag-Mcm2 protein (human). Cells from one 10 cm dish were resuspended in […] of Buffer A (10 mM Hepes-KOH pH 7.5, 10 mM KCl, 1.5 mM MgCl2, 0.34 M sucrose, 10% glycerol, protease inhibitors, and 0.1% Triton-X-100) and incubated on ice for 5 min. The nuclear pellet was obtained by centrifugation at 4,000 rpm at 4° C. for 5 min and washed with the Buffer A without Triton X-100. The nuclear extract was obtained by resuspending the nuclear pellet in […] of Buffer A containing 420 mM potassium acetate and 0.01% Triton X-100, and incubating at 4° C. for 1 hr. The final concentration of potassium acetate in nuclear extracts was adjusted to 200 mM for the co-immunoprecipitation assays. For the co-immunoprecipitation assays, […] of indicated antibody [anti-Mcm2, anti-Psf1, or rabbit IgG (Sigma)], or 30 mL of mouse IgG or anti-Flag agarose beads (Sigma), was incubated with […] of nuclear extract at 4° C. for 4 hrs. Protein A/G agarose beads (30 mL, Santa Cruz, sc-2003) were added and incubated for 1 hr with antibodies. Agarose beads were washed once in Buffer A containing 200 mM potassium acetate and 0.01% Triton X-100 and incubated with 15 μM CA1 or DMSO (same concentration as in CA1 sample) for 30 min. Beads were washed in the same buffer and analyzed by immunoblotting with indicated antibodies.

[5] = test system: CMG proteins in 143B cells; assay: Immunoblot of chromatin-bound proteins, asynchronous 143B OS cells; type: cell-based, human; conditions: 24 hrs
Description: as §1

Chain of HPV18-E1 helicase (P06789 305-657): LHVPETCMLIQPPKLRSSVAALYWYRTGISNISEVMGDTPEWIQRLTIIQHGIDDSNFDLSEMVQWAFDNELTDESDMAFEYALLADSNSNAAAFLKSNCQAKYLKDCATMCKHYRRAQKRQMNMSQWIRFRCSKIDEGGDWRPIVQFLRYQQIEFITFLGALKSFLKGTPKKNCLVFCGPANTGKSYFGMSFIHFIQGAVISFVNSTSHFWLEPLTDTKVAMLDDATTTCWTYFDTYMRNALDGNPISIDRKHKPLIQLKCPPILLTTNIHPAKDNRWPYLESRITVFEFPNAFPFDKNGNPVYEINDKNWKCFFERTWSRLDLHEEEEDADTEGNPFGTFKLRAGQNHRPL

Row | Structure (SMILES) | DNA Polymerase-theta inhibition (DNA Polymerase-theta) | effect on tumor cell viability (143B cells) | gamma-H2AX and Parp cleavage (HaCaT cells) | HPV18-E1 helicase sensitivity (HPV18-E1 helicase) | gyrase inhibition [1] | Mcm2 S53 and S139 phosphorylation [2] | gamma-H2AX and Parp cleavage, tumor lines vs HaCaT [3] | Cdc45 association with MCMs ([4]; Mcm2 IP) | MCM complexes ([4]; Mcm2 IP) | Mcm2 and Mcm6 interactions with GINS ([4]; Psf1 IP) | Psf1-3 interactions ([4]; Psf1 IP) | MCM levels ([5]; higher CA1 doses) | RPA levels ([5]; low micromolar CA1) | chromatin-bound levels of Cdc45, Psf1 and Psf2 ([5]; low micromolar CA1)
1 | CO[C@@H]1[C@@H](OC(N)=O)[C@@H](O)[C@H](Oc2ccc3c(O)c(NC(=O)c4ccc(O)c(CC=C(C)C)c4)c(=O)oc3c2C)OC1(C)C [novobiocin] | can inhibit a different anti-cancer target, DNA Polymerase-theta | little effect until higher concentrations are tested | – | – | – | – | – | – | – | – | – | – | – | –
2 | CO[C@@H]1[C@@H](OC(=O)c2ccc(C)[nH]2)[C@@H](O)[C@H](Oc2ccc3c(O)c(NC(=O)c4c[nH]c(C(=O)Nc5c(O)c6ccc(O[C@@H]7OC(C)(C)[C@H](OC)[C@@H](OC(=O)c8ccc(C)[nH]8)[C@H]7O)c(C)c6oc5=O)c4C)c(=O)oc3c2C)OC1(C)C [CA1] | – | – | HaCaT cells will eventually incur DNA damage and Parp cleavage | sensitive to CA1, but require higher CA1 concentrations | known to inhibit the bacterial type-2 topoisomerase, gyrase | no phosphorylation changes | tumor cell-specific increase in DNA damage signals (gamma-H2AX surrogate) and Parp cleavage | causes Cdc45 to dissociate from MCMs | does not disrupt MCM complexes | abolished | did not disrupt Psf1-3 interactions | MCM levels start to diminish | reducing RPA levels in a dose-dependent manner | reducing the chromatin-bound levels of Cdc45, Psf1, and Psf2
